From patent US9334278B2, “Pyrrolo[2,3-B]pyrazines as SYK inhibitors” (Hoffmann-La Roche Inc., priority 2012, dated 2016)
pIC50: −log10 of the molar value. Read-outs that look alike come from different tables or passages of the source.

How the values were obtained:
[1] = test system: B cell CD69 up-regulation in human whole blood; experiment: B Cell CD69 Up-Regulation Assay in Human Whole Blood; type: cell-based; settings: anti-human IgM 50 μg/mL for 20 h, CD69hi CD20+ B cells
Procedure: B Cell CD69 Up-Regulation Assay in Human Whole Blood
Human Blood was collected from healthy volunteers into Vacutainers (BD Biosciences, San Jose, Calif.) containing sodium heparin. Test compound was suspended in DMSO and nine half-log serial dilutions were made. The concentration of […] in the assay was 0.5%. 100 μL whole blood was pre-incubated with compound for 30 min and then stimulated with goat F(ab′)2 anti-human IgM (50 μg/mL, Southern Biotech) for 20 h. At the end of the 20 hour incubation, samples were incubated with fluorochrome-conjugated antibodies, PE mouse anti-human CD20 and APC Mouse anti-human CD69 (BD Biosciences), for 30 minutes. Samples were then lysed with Lyse solution (BD) and washed with PBS containing 2% fetal bovine serum (FBS). Fluorescent signals were acquired on flow cytometer LSR II (BD) and data were analyzed by Flow Jo. The percentage of activated (CD69hi) B-cell lymphocytes (CD20+) were determined using un-stimulated (negative control) and stimulated (positive control) wells as reference guidelines. The percentage inhibition was calculated and an IC50 curve was constructed using GraphPad Prism software with sigmoidal curve fitting.

[2] = target: recombinant human SYK360-635 (Spleen Tyrosine Kinase) (Homo sapiens (Human), UniProt P43405); experiment: SYK kinase assay (33P filtration, IC50 of SYK inhibition)
Procedure: Determination of IC50 of Spleen Tyrosine Kinase (SYK) inhibition:
SYK kinase assay is a standard kinase assay adapted to a 96 well plate format. This assay is performed in 96-well format for IC50 determination with 8 samples which represented 10 half log dilutions and a 40 μL reaction volume. The assay measures the incorporation of radiolabeled ^33P γATP into an N-terminally biotinylated peptide substrate, derived from naturally occurring phosphoacceptor consensus sequence (Biotin-11aa DY*E). Phosphorylated products were detected upon termination of reactions with EDTA and the addition of Streptavidin coated beads.
BSA: Bovine Serum Albumin Fraction V, fatty acid free (Roche Diagnostics GmbH, Cat. No. 9100221) diluted to a final concentration of 0.1%
Assay Dilution Buffer (ADB): 50 mM HEPES, 0.1 mM EGTA, 0.1 mM Na Vanadate, 0.1 mM (3-glycerophosphate, 10 mM MgCl2, 1 mM DTT, 0.1% BSA, pH 7.5
Bead wash buffer: 10 g/L PBS (Phosphate buffered saline) with 2M NaCl+1% phosphoric acid.
DMSO and the mixture was incubated for 10 min at RT.
The kinase reaction was initiated by the addition of 10 μL 4× substrate cocktail containing the DYE peptide substrate [0 or 5 μM], ATP [20 μM] and ^33PγATP [2 μCi/r×n]. After incubation at 30° C. for 15 min, the reaction was terminated by the transfer of 25 μL of the reaction sample to a 96 well 0.65 μm Millipore MADVNOB membrane/plate containing 200 μL 5 mM EDTA and 20% Streptavidine coated beads in PBS.
The unbound radionucleotides were washed under vacuum with 3×250 μL 2M NaCl; 2×250 μL 2M NaCl+1% phosphoric acid; 1×250 μL H2O. After the last wash membrane/plates were transferred to an adaptor plate, heat dried for 15 min at 60° C., and 50 μL scintillation cocktail was added to each well and 4 h later the amount of radioactivity was counted in a top counter.

[3] = test system: Human B cell lymphoma cell line Ramos; experiment: Ramos Calcium Influx FLIPR Assay; type: cell-based; settings: Ramos cells, anti-human IgM 10 μg/mL stimulation, read-out: RAMOS_IC50
Procedure: Ramos Calcium Influx FLIPR Assay
Human B cell lymphoma cell line Ramos was cultivated in RPMI-1640 with 10% Fetal Bovine Serum (Invitrogen). Cells were seeded into assay plate and loaded with calcium dye by adding 30 μl of dye loading buffer according to manufacturer's instruction (Beckton Dickinson Calcium Kit, Cat#80500). The cells were then treated with serial diluted compounds for 30 min before stimulation. Baseline fluorescence was recorded for about 20 seconds followed by stimulation with mouse anti-human IgM (10 μg/mL, clone M2E6, Antibody Solutions Inc.) for Ramos cells, and record of the maximal fluorescent counts in each well. Maximal counts divided by baseline counts, defined as fold change from baseline for each well, was used for IC50 calculation.

[4] = read-out: ENZYME_FILTRATION_IC50, SYK 0.5 nM, ATP 20 μM, 33P filtration

CC(C)(C)NC(=O)c1c[nH]c2ncc(Nc3cccc(S(C)(=O)=O)c3)nc12 [Compound I-13, N-tert-butyl-2-(3-(methylsulfonyl)phenylamino)-5H-pyrrolo[2,3-b]pyrazine-7-carboxamide]
pIC50 [1]: 6.72 | pIC50 [2, 4]: 7.89 | pIC50 [3]: 7.16

[2H]c1c([2H])c([2H])c(Nc2cnc3[nH]cc(C(=O)NC(C)(C)C)c3n2)c([2H])c1[2H] [Compound I-37, 2-Phenylamino(D5)-5H-pyrrolo[2,3-b]pyrazine-7-carboxylic acid tert-butylamide]
pIC50 [2]: 8.32 | pIC50 [3]: 7.42

Cc1ccc(Nc2cnc3[nH]cc(C(=O)NC(C)(C)C)c3n2)cn1 [Compound I-6, N-tert-butyl-2-(6-methylpyridin-3-ylamino)-5H-pyrrolo[2,3-b]pyrazine-7-carboxamide]
pIC50 [1]: 6.37 | pIC50 [2, 4]: 7.77 | pIC50 [3]: 6.94

CC(C)(C)NC(=O)c1c[nH]c2ncc(Nc3ccc(S(C)(=O)=O)cc3)nc12 [Compound I-20, N-tert-butyl-2-(4-(methylsulfonyl)phenylamino)-5H-pyrrolo[2,3-b]pyrazine-7-carboxamide]
pIC50 [1]: 6.30 | pIC50 [2, 4]: 7.52 | pIC50 [3]: 6.47

Cn1cc(Nc2cnc3[nH]cc(C(=O)NC(C)(C)CO)c3n2)cn1 [Compound I-17, N-(1-hydroxy-2-methylpropan-2-yl)-2-(1-methyl-1H-pyrazol-4-ylamino)-5H-pyrrolo[2,3-b]pyrazine-7-carboxamide]
pIC50 [1]: 6.71 | pIC50 [2, 4]: 7.30 | pIC50 [3]: 6.68

Cc1ccc(Nc2cnc3[nH]cc(C(=O)NC(C)(C)C)c3n2)cc1 [Compound I-12, N-tert-butyl-2-(p-tolylamino)-5H-pyrrolo[2,3-b]pyrazine-7-carboxamide]
pIC50 [1]: 5.67 | pIC50 [2, 4]: 8.49 | pIC50 [3]: 7.12

CC(C)(C)NC(=O)c1c[nH]c2ncc(Nc3ccnc(S(C)(=O)=O)c3)nc12 [Compound I-28, N-tert-butyl-2-(2-(methylsulfonyl)pyridin-4-ylamino)-5H-pyrrolo[2,3-b]pyrazine-7-carboxamide]
pIC50 [2, 4]: 6.92 | pIC50 [3]: 6.09

CC(C)(C)NC(=O)c1c[nH]c2ncc(Nc3ccc(S(C)(=O)=O)nc3)nc12 [Compound I-23, N-tert-butyl-2-(6-(methylsulfonyl)pyridin-3-ylamino)-5H-pyrrolo[2,3-b]pyrazine-7-carboxamide]
pIC50 [1]: 6.20 | pIC50 [2, 4]: 6.93 | pIC50 [3]: 5.44

Cc1cc(Nc2nc3c(C(=O)NC(C)(C)C)c[nH]c3nc2Cl)sn1 [Compound I-38, N-tert-butyl-3-chloro-2-(3-methylisothiazol-5-ylamino)-5H-pyrrolo[2,3-b]pyrazine-7-carboxamide]
pIC50 [2, 4]: 6.19 | pIC50 [3]: 4.83

Cc1c(Nc2cnc3[nH]cc(C(=O)NC(C)(C)C)c3n2)cnn1C [Compound I-16, N-tert-butyl-2-(1,5-dimethyl-1H-pyrazol-4-ylamino)-5H-pyrrolo[2,3-b]pyrazine-7-carboxamide]
pIC50 [1]: 6.43 | pIC50 [2, 4]: 7.03 | pIC50 [3]: 6.77

CC(C)(CO)NC(=O)c1c[nH]c2ncc(Nc3cccnc3)nc12 [Compound I-26, N-(1-hydroxy-2-methylpropan-2-yl)-2-(pyridin-3-ylamino)-5H-pyrrolo[2,3-b]pyrazine-7-carboxamide]
pIC50 [2, 4]: 8.25 | pIC50 [3]: 6.67

Cc1ccc(Nc2cnc3[nH]cc(C(=O)NC(C)(C)C)c3n2)c(C)c1 [Compound I-19, N-tert-butyl-2-(2,4-dimethylphenylamino)-5H-pyrrolo[2,3-b]pyrazine-7-carboxamide]
pIC50 [2, 4]: 6.93 | pIC50 [3]: 6.29

Cc1cc(Nc2cnc3[nH]cc(C(=O)NC(C)(C)C)c3n2)sn1 [Compound I-18, N-tert-butyl-2-(3-methylisothiazol-5-ylamino)-5H-pyrrolo[2,3-b]pyrazine-7-carboxamide]
pIC50 [1]: 6.90 | pIC50 [2, 4]: 8.70 | pIC50 [3]: 7.10

Cc1nsc(Nc2cnc3[nH]cc(C(=O)NC(C)(C)C)c3n2)n1 [Compound I-31, N-tert-butyl-2-(3-methyl-1,2,4-thiadiazol-5-ylamino)-5H-pyrrolo[2,3-b]pyrazine-7-carboxamide]
pIC50 [2, 4]: 7.75 | pIC50 [3]: 6.60

CC(O)c1cccc(Nc2cnc3[nH]cc(C(=O)NC(C)(C)C)c3n2)c1 (centres unmarked) [Compound I-24, N-tert-butyl-2-(3-(1-hydroxyethyl)phenylamino)-5H-pyrrolo[2,3-b]pyrazine-7-carboxamide]
pIC50 [1]: 6.38 | pIC50 [2, 4]: 8.23 | pIC50 [3]: 7.03

Cn1cc2c(n1)CCCN2c1cnc2[nH]cc(C(=O)NC(C)(C)C)c2n1 [Compound I-32, N-tert-butyl-2-(2-methyl-6,7-dihydro-2H-pyrazolo[4,3-b]pyridin-4(5H)-yl)-5H-pyrrolo[2,3-b]pyrazine-7-carboxamide]
pIC50 [1]: 5.94 | pIC50 [2, 4]: 7.36 | pIC50 [3]: 6.56

Cc1cnc(Nc2cnc3[nH]cc(C(=O)NC(C)(C)C)c3n2)cn1 [Compound I-8, N-tert-butyl-2-(5-methylpyrazin-2-ylamino)-5H-pyrrolo[2,3-b]pyrazine-7-carboxamide]
pIC50 [1]: 6.37 | pIC50 [2, 4]: 7.29 | pIC50 [3]: 6.48

Cn1ncc2c1CCCN2c1cnc2[nH]cc(C(=O)NC(C)(C)C)c2n1 [Compound I-33, N-tert-butyl-2-(1-methyl-6,7-dihydro-1H-pyrazolo[4,3-b]pyridin-4(5H)-yl)-5H-pyrrolo[2,3-b]pyrazine-7-carboxamide]
pIC50 [1]: 5.84 | pIC50 [2, 4]: 6.78 | pIC50 [3]: 6.10

Cn1cc(Nc2cnc3[nH]cc(C(=O)NC(C)(C)C)c3n2)cn1 [Compound I-5, N-tert-butyl-2-(1-methyl-1H-pyrazol-4-ylamino)-5H-pyrrolo[2,3-b]pyrazine-7-carboxamide]
pIC50 [1]: 7.12 | pIC50 [2, 4]: 7.86 | pIC50 [3]: 6.96

CC(C)(C)NC(=O)c1c[nH]c2ncc(Nc3cccnc3)nc12 [Compound I-10, N-tert-butyl-2-(pyridin-3-ylamino)-5H-pyrrolo[2,3-b]pyrazine-7-carboxamide]
pIC50 [2, 4]: 7.79 | pIC50 [3]: 7.19

CC(C)(C)NC(=O)c1c[nH]c2ncc(Nc3cncc(S(C)(=O)=O)c3)nc12 [Compound I-29, N-tert-butyl-2-(5-(methylsulfonyl)pyridin-3-ylamino)-5H-pyrrolo[2,3-b]pyrazine-7-carboxamide]
pIC50 [2, 4]: 6.64 | pIC50 [3]: 6.19

Cc1ccc(Nc2cnc3[nH]cc(C(=O)NC(C)(C)C)c3n2)c(F)c1 [Compound I-11, N-tert-butyl-2-(2-fluoro-4-methylphenylamino)-5H-pyrrolo[2,3-b]pyrazine-7-carboxamide]
pIC50 [2, 4]: 7.96 | pIC50 [3]: 5.88

Cc1nc2[nH]cc(C(=O)NC(C)(C)C)c2nc1Nc1cnn(C)c1 [Compound I-34, 3-Methyl-2-(1-methyl-1H-pyrazol-4-ylamino)-5H-pyrrolo[2,3-b]pyrazine-7-carboxylic acid tert-butylamide]
pIC50 [1]: 5.29 | pIC50 [3]: 5.66

CN(C)C(=O)c1ccccc1Nc1cnc2[nH]cc(C(=O)NC(C)(C)C)c2n1 [Compound I-15, N-tert-butyl-2-(2-(dimethylcarbamoyl)phenylamino)-5H-pyrrolo[2,3-b]pyrazine-7-carboxamide]
pIC50 [1]: 5.16 | pIC50 [2, 4]: 6.03

Cc1nc2[nH]cc(C(=O)NC(C)(C)C)c2nc1Nc1cccc(S(C)(=O)=O)c1 [Compound I-35, 2-(3-Methanesulfonyl-phenylamino)-3-methyl-5H-pyrrolo[2,3-b]pyrazine-7-carboxylic acid tert-butylamide]
pIC50 [2, 4]: 5.53
